We go through nine compounds from PubChem BioAssay AID1259407 (Chemical Carcinogenesis Research Information System (CCRIS), 2018).

The subject of this series is CCRIS mutagenicity, Ames/micronucleus/aberration tests. In words: CCRIS mutagenicity studies.
Where [1] appears, read: Test System: AMES SALMONELLA TYPHIMURIUM, Strain/Indicator: TA97, Metabolic Activation: NONE, Method: PREINCUBATION
Setting [2] is: Test System: AMES SALMONELLA TYPHIMURIUM, Strain/Indicator: TA98, Metabolic Activation: NONE, Method: PREINCUBATION
[3] abbreviates: Test System: AMES SALMONELLA TYPHIMURIUM, Strain/Indicator: TA100, Metabolic Activation: NONE, Method: PREINCUBATION
[4] abbreviates: Test System: AMES SALMONELLA TYPHIMURIUM, Strain/Indicator: TA1535, Metabolic Activation: NONE, Method: PREINCUBATION
Setting [5] is: Test System: AMES SALMONELLA TYPHIMURIUM, Strain/Indicator: TA100, Metabolic Activation: NONE, Method: STANDARD PLATE.
The mark [6] stands for this setting: Test System: AMES SALMONELLA TYPHIMURIUM, Strain/Indicator: TA98, Metabolic Activation: NONE, Method: STANDARD PLATE.

Active and inactive are the calls of the source. The rule behind the calls is not given here.

On to `CCN(CC)c1cccc(O)c1`, for which the mutagenic call is “active; positive” (Test System: AMES SALMONELLA TYPHIMURIUM, Strain/Indicator: TA97, Metabolic Activation: HAMSTER, LIVER, S-9, AROCLOR 1254 (10%), Method: PREINCUBATION); “inactive; negative” under setting [1]; “active; positive” (Test System: AMES SALMONELLA TYPHIMURIUM, Strain/Indicator: TA97, Metabolic Activation: RAT, LIVER, S-9, AROCLOR 1254 (10%), Method: PREINCUBATION); “active; positive” (Test System: AMES SALMONELLA TYPHIMURIUM, Strain/Indicator: TA98, Metabolic Activation: HAMSTER, LIVER, S-9, AROCLOR 1254 (10%), Method: PREINCUBATION); “inactive; negative” under setting [2]; “active; positive” (Test System: AMES SALMONELLA TYPHIMURIUM, Strain/Indicator: TA98, Metabolic Activation: RAT, LIVER, S-9, AROCLOR 1254 (10%), Method: PREINCUBATION). Also, the mutagenic call is “active; positive” (Test System: AMES SALMONELLA TYPHIMURIUM, Strain/Indicator: TA100, Metabolic Activation: HAMSTER, LIVER, S-9, AROCLOR 1254 (10%), Method: PREINCUBATION); “inactive; negative” under setting [3]; “inactive; negative” (Test System: AMES SALMONELLA TYPHIMURIUM, Strain/Indicator: TA100, Metabolic Activation: RAT, LIVER, S-9, AROCLOR 1254 (10%), Method: PREINCUBATION); “inactive; negative” (Test System: AMES SALMONELLA TYPHIMURIUM, Strain/Indicator: TA1535, Metabolic Activation: HAMSTER, LIVER, S-9, AROCLOR 1254 (10%), Method: PREINCUBATION); “inactive; negative” under setting [4]; “inactive; negative” (Test System: AMES SALMONELLA TYPHIMURIUM, Strain/Indicator: TA1535, Metabolic Activation: RAT, LIVER, S-9, AROCLOR 1254 (10%), Method: PREINCUBATION).

In the case of `Cc1ccc(NC2OC[C@@H](O)[C@H](O)[C@H]2O)cc1` (stereo partly drawn), where the note is “Test System: AMES SALMONELLA TYPHIMURIUM, Strain/Indicator: TA100, Metabolic Activation: NONE, Method: LIQUID INCUBATION”, the mutagenic call was “active; positive”.

`CCCCCCCCCC(=O)OCCN1CCN(CCCN2c3ccccc3Sc3ccc(C(F)(F)F)cc32)CC1`: the mutagenic call runs as follows: (Test System: AMES SALMONELLA TYPHIMURIUM, Strain/Indicator: TA98, Metabolic Activation: NONE) “inactive; negative”; (Test System: AMES SALMONELLA TYPHIMURIUM, Strain/Indicator: TA98, Metabolic Activation: RAT, LIVER, S-9, PHENOBARBITAL AND 5,6-BENZOFLAVONE) “inactive; negative”; under setting [3], “inactive; negative”; (Test System: AMES SALMONELLA TYPHIMURIUM, Strain/Indicator: TA100, Metabolic Activation: RAT, LIVER, S-9, PHENOBARBITAL AND 5,6-BENZOFLAVONE) “inactive; negative”; (Test System: AMES SALMONELLA TYPHIMURIUM, Strain/Indicator: TA1535, Metabolic Activation: NONE) “inactive; negative”; (Test System: AMES SALMONELLA TYPHIMURIUM, Strain/Indicator: TA1535, Metabolic Activation: RAT, LIVER, S-9, PHENOBARBITAL AND 5,6-BENZOFLAVONE) “inactive; negative”. The mutagenic call is, setting by setting: (Test System: AMES SALMONELLA TYPHIMURIUM, Strain/Indicator: TA1537, Metabolic Activation: NONE) “inactive; negative”; (Test System: AMES SALMONELLA TYPHIMURIUM, Strain/Indicator: TA1537, Metabolic Activation: RAT, LIVER, S-9, PHENOBARBITAL AND 5,6-BENZOFLAVONE) “inactive; negative”; (Test System: E. COLI, Strain/Indicator: WP2 UVRA, Metabolic Activation: NONE) “inactive; negative”; (Test System: E. COLI, Strain/Indicator: WP2 UVRA, Metabolic Activation: RAT, LIVER, S-9, PHENOBARBITAL AND 5,6-BENZOFLAVONE) “inactive; negative”.

With `COc1nsc2ccc(OCC3CO3)cc12` (stereo not drawn), the mutagenic call under setting [5] was “active; positive”.

For the compound `CCCCCCCCCc1ccccc1Oc1ccccc1CCCCCCCCC`, the mutagenic call by setting is: (Test System: AMES SALMONELLA TYPHIMURIUM, Strain/Indicator: TA97, Metabolic Activation: NONE, Method: STANDARD PLATE) “inactive; negative”; (Test System: AMES SALMONELLA TYPHIMURIUM, Strain/Indicator: TA97, Metabolic Activation: S-9, Method: STANDARD PLATE) “inactive; negative”; under setting [6], “inactive; negative”; (Test System: AMES SALMONELLA TYPHIMURIUM, Strain/Indicator: TA98, Metabolic Activation: S-9, Method: STANDARD PLATE) “inactive; negative”; under setting [5], “inactive; negative”; (Test System: AMES SALMONELLA TYPHIMURIUM, Strain/Indicator: TA100, Metabolic Activation: S-9, Method: STANDARD PLATE) “inactive; negative”. For the same compound, the mutagenic call runs as follows: (Test System: AMES SALMONELLA TYPHIMURIUM, Strain/Indicator: TA102, Metabolic Activation: NONE, Method: STANDARD PLATE) “inactive; negative”; (Test System: AMES SALMONELLA TYPHIMURIUM, Strain/Indicator: TA102, Metabolic Activation: S-9, Method: STANDARD PLATE) “inactive; negative”; (Test System: E.COLI, Strain/Indicator: WP2 (PKM101), Metabolic Activation: NONE, Method: STANDARD PLATE) “inactive; negative”; (Test System: E.COLI, Strain/Indicator: WP2 (PKM101), Metabolic Activation: S-9, Method: STANDARD PLATE) “inactive; negative”.

For `O=NC1=Cc2nc3ccccn3c2NC1`, the mutagenic call runs as follows: under setting [6], “active; positive”; (Test System: AMES SALMONELLA TYPHIMURIUM, Strain/Indicator: TA98, Metabolic Activation: RAT, LIVER, CYTOSOL, AROCLOR 1254, Method: STANDARD PLATE) “active; positive”; (Test System: AMES SALMONELLA TYPHIMURIUM, Strain/Indicator: TA98, Metabolic Activation: RAT, LIVER, MICROSOMES, AROCLOR 1254, Method: STANDARD PLATE) “inactive; negative”; (Test System: AMES SALMONELLA TYPHIMURIUM, Strain/Indicator: TA98, Metabolic Activation: RAT, LIVER, S-9, AROCLOR 1254, Method: STANDARD PLATE) “active; positive”.

In the case of `Cn1sc(Cl)cc1=O` (tested in a mixture with another compound), the mutagenic call under setting [5] was “active; positive” and the mutagenic call (Test System: AMES SALMONELLA TYPHIMURIUM, Strain/Indicator: TA100, Metabolic Activation: RAT, LIVER, S-9, AROCLOR 1254, Method: STANDARD PLATE) is “active; positive”.

Take `CC(C)c1ccccc1OP(=O)(Oc1ccccc1)Oc1ccccc1`: the mutagenic call is, setting by setting: (Test System: AMES SALMONELLA TYPHIMURIUM, Strain/Indicator: TA97, Metabolic Activation: HAMSTER, LIVER, S-9, AROCLOR 1254 (10 OR 30%), Method: PREINCUBATION) “inactive; negative”; under setting [1], “inactive; negative”; (Test System: AMES SALMONELLA TYPHIMURIUM, Strain/Indicator: TA97, Metabolic Activation: RAT, LIVER, S-9, AROCLOR 1254 (10 OR 30%), Method: PREINCUBATION) “inactive; negative”; (Test System: AMES SALMONELLA TYPHIMURIUM, Strain/Indicator: TA98, Metabolic Activation: HAMSTER, LIVER, S-9, AROCLOR 1254 (10 OR 30%), Method: PREINCUBATION) “inactive; negative”; under setting [2], “inactive; negative”; (Test System: AMES SALMONELLA TYPHIMURIUM, Strain/Indicator: TA98, Metabolic Activation: RAT, LIVER, S-9, AROCLOR 1254 (10 OR 30%), Method: PREINCUBATION) “inactive; negative”. Further, the mutagenic call is “inactive; negative” (Test System: AMES SALMONELLA TYPHIMURIUM, Strain/Indicator: TA100, Metabolic Activation: HAMSTER, LIVER, S-9, AROCLOR 1254 (10 OR 30%), Method: PREINCUBATION); “inactive; negative” under setting [3]; “inactive; negative” (Test System: AMES SALMONELLA TYPHIMURIUM, Strain/Indicator: TA100, Metabolic Activation: RAT, LIVER, S-9, AROCLOR 1254 (10 OR 30%), Method: PREINCUBATION); “inactive; negative” (Test System: AMES SALMONELLA TYPHIMURIUM, Strain/Indicator: TA1535, Metabolic Activation: HAMSTER, LIVER, S-9, AROCLOR 1254 (10 OR 30%), Method: PREINCUBATION); “inactive; negative” under setting [4]; “inactive; negative” (Test System: AMES SALMONELLA TYPHIMURIUM, Strain/Indicator: TA1535, Metabolic Activation: RAT, LIVER, S-9, AROCLOR 1254 (10 OR 30%), Method: PREINCUBATION).

Take `Cn1cnc2ccc([N+](=O)[O-])cc21`: the mutagenic call under setting [6] was “active; positive”.
